Experiments:
Assay in all cases: relative viability (nuclei count vs DMSO), 5 days (fraction); higher = more cells survive
Linifanib = compound: Cc1ccc(F)c(NC(=O)Nc2ccc(-c3cccc4[nH]nc(N)c34)cc2)c1 [Linifanib]
How it was run: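 A plate was accepted only when its control CV was below 25% and the cells had doubled at least once. Viability is defined from nuclear counts as treated wells divided by vehicle wells, with the median taken across plates. That median covers lung cancer cell lines grown in 1536-well plates, dosed by pinning at five √10-spaced library-drug concentrations, and counted in MetaXpress from 4× Hoechst images after 5 days.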

Linifanib + Trametinib = compound: Cc1ccc(F)c(NC(=O)Nc2ccc(-c3cccc4[nH]nc(N)c34)cc2)c1 [Linifanib] + CC(=O)Nc1cccc(-n2c(=O)n(C3CC3)c(=O)c3c(Nc4ccc(I)cc4F)n(C)c(=O)c(C)c32)c1 [Trametinib] (partner 0.02 µM)
How it was run: (§1)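 Lung cancer cell lines were seeded in 1536-well plates and dosed by pin tool the next day, with either a single drug or a fixed anchor-drug dose combined with five library-drug doses (not always all listed) spaced in √10 steps. Five days later, one step fixed the cells and stained their nuclei (final 0.05% Triton X-100, 1% formaldehyde, 1 ug/ml Hoechst), and nuclei were counted on 4× images. Relative viability is the nuclei count in treated wells divided by the count in vehicle wells, and each value is the median of duplicate plates.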

Linifanib + Palbociclib = compound: Cc1ccc(F)c(NC(=O)Nc2ccc(-c3cccc4[nH]nc(N)c34)cc2)c1 [Linifanib] + CC(=O)c1c(C)c2cnc(Nc3ccc(N4CCNCC4)cn3)nc2n(C2CCCC2)c1=O [Palbociclib] (partner 0.5 µM)
How it was run: as §1

Linifanib + Foretinib = compound: Cc1ccc(F)c(NC(=O)Nc2ccc(-c3cccc4[nH]nc(N)c34)cc2)c1 [Linifanib] + COc1cc2c(Oc3ccc(NC(=O)C4(C(=O)Nc5ccc(F)cc5)CC4)cc3F)ccnc2cc1OCCCN1CCOCC1 [Foretinib] (partner 0.25 µM)
How it was run: as §1

Linifanib + Crizotinib = compound: Cc1ccc(F)c(NC(=O)Nc2ccc(-c3cccc4[nH]nc(N)c34)cc2)c1 [Linifanib] + C[C@@H](Oc1cc(-c2cnn(C3CCNCC3)c2)cnc1N)c1c(Cl)ccc(F)c1Cl [Crizotinib] (partner 1 µM)
How it was run: as §1

Linifanib + Tozasertib = compound: Cc1ccc(F)c(NC(=O)Nc2ccc(-c3cccc4[nH]nc(N)c34)cc2)c1 [Linifanib] + Cc1cc(Nc2cc(N3CCN(C)CC3)nc(Sc3ccc(NC(=O)C4CC4)cc3)n2)n[nH]1 [Tozasertib] (partner 0.1 µM)
How it was run: as §1

Cell Line	relative viability (Linifanib; 0.03162 µM)	relative viability (Linifanib; 0.1 µM)	relative viability (Linifanib; 0.3162 µM)	relative viability (Linifanib + Trametinib; first compound 0.03162 µM)	relative viability (Linifanib + Trametinib; first compound 0.1 µM)	relative viability (Linifanib + Trametinib; first compound 0.3162 µM)	relative viability (Linifanib + Palbociclib; first compound 0.03162 µM)	relative viability (Linifanib + Palbociclib; first compound 0.1 µM)	relative viability (Linifanib + Palbociclib; first compound 0.3162 µM)	relative viability (Linifanib + Foretinib; first compound 0.03162 µM)	relative viability (Linifanib + Foretinib; first compound 0.1 µM)	relative viability (Linifanib + Foretinib; first compound 0.3162 µM)	relative viability (Linifanib + Crizotinib; first compound 0.03162 µM)	relative viability (Linifanib + Crizotinib; first compound 0.1 µM)	relative viability (Linifanib + Crizotinib; first compound 0.3162 µM)	relative viability (Linifanib + Tozasertib; first compound 0.03162 µM)	relative viability (Linifanib + Tozasertib; first compound 0.1 µM)	relative viability (Linifanib + Tozasertib; first compound 0.3162 µM)
COR-L 105	0.975	0.97	0.904	0.444	0.451	0.45	0.424	0.405	0.401	0.968	1.08	0.919	0.796	0.941	0.797	0.334	0.321	0.336
LK-2	1.05	1.12	0.965	0.707	0.769	0.742	0.564	1.01	0.565	1.12	1.33	1.08	0.216	0.195	0.219	0.155	0.177	0.2
NCI-H2347	1.08	1.22	1	0.283	0.292	0.264	0.462	0.441	0.404	1.09	1.25	0.782	0.727	0.7	0.812	0.615	0.523	0.591
LOU-NH91	0.979	1.07	0.951	0.775	0.798	0.762	0.551	0.517	0.51	0.942	0.981	0.884	0.74	0.767	0.769	0.713	0.693	0.68
NCI-H1355	1.03	1.07	0.99	0.407	0.497	0.404	0.398	0.411	0.389	0.994	1.04	0.941	1.04	1.02	1.14	0.504	0.547	0.551
NCI-H2085	1.02	1.06	1.01	0.67	0.503	0.59	0.485	0.474	0.463	0.979	1.12	0.806	0.863	1.03	0.818	0.793	0.772	0.843
SK-MES-1	0.969	1.08	0.965	0.528	0.568	0.507	0.323	0.331	0.336	0.986	1	0.827	1.01	1.03	0.81	0.882	1.06	0.819
SW 1573	0.98	1.08	0.963	0.505	0.674	0.563	0.367	0.448	0.366	0.897	1.21	0.843	0.784	0.91	0.74	0.195	0.193	0.189
BEN	0.888	1.16	0.915	0.929	0.946	1.1	0.471	0.521	0.438	0.718	0.774	0.608	0.897	0.924	0.791	0.446	0.441	0.484
ChaGo-K-1	1.07	1.01	0.983	0.904	0.942	0.86	0.984	0.881	0.916	1.09	0.935	0.951	1.13	1.14	1.08	0.239	0.245	0.228
EKVX	0.982	1.01	0.91	0.381	0.411	0.392	0.447	0.383	0.415	0.787	0.886	0.686	0.939	1.01	0.875	0.477	0.448	0.338
HARA	0.926	1.04	0.907	0.813	0.809	0.591	0.274	0.244	0.303	1.09	1.06	0.835	1.09	1.18	0.975	0.094	0.117	0.0893
PC-14	0.999	1	0.904	0.689	0.715	0.666	0.444	0.584	0.463	0.976	0.951	0.914	0.919	1	0.793	0.499	0.502	0.552
NCI-H520	0.862	1.07	0.955	0.673	0.803	0.731	0.22	0.216	0.238	0.741	1.01	0.708	0.799	1.09	0.757	0.382	0.456	0.418
HCC-78	0.99	1.17	0.885	0.657	0.692	0.805	0.513	0.433	0.447	0.543	0.501	0.542	0.373	0.376	0.319	0.493	0.519	0.371
COR-L23	1.1	1.11	1	0.666	0.689	0.578	0.31	0.298	0.273	0.952	0.951	0.959	0.716	0.657	0.531	0.181	0.228	0.141
LU99A	1.02	1.03	0.853	0.558	0.582	0.587	0.457	0.464	0.408	0.856	0.973	0.826	0.61	0.57	0.558	0.277	0.306	0.317

Cell Line	relative viability (Linifanib; 0.03162 µM)	relative viability (Linifanib; 0.1 µM)	relative viability (Linifanib; 0.3162 µM)	relative viability (Linifanib + Trametinib; first compound 0.03162 µM)	relative viability (Linifanib + Trametinib; first compound 0.1 µM)	relative viability (Linifanib + Trametinib; first compound 0.3162 µM)	relative viability (Linifanib + Palbociclib; first compound 0.03162 µM)	relative viability (Linifanib + Palbociclib; first compound 0.1 µM)	relative viability (Linifanib + Palbociclib; first compound 0.3162 µM)	relative viability (Linifanib + Foretinib; first compound 0.03162 µM)	relative viability (Linifanib + Foretinib; first compound 0.1 µM)	relative viability (Linifanib + Foretinib; first compound 0.3162 µM)	relative viability (Linifanib + Crizotinib; first compound 0.03162 µM)	relative viability (Linifanib + Crizotinib; first compound 0.1 µM)	relative viability (Linifanib + Crizotinib; first compound 0.3162 µM)	relative viability (Linifanib + Tozasertib; first compound 0.03162 µM)	relative viability (Linifanib + Tozasertib; first compound 0.1 µM)	relative viability (Linifanib + Tozasertib; first compound 0.3162 µM)
PC-3 [JPC-3]	1.06	1.03	0.939	0.706	0.756	0.659	0.615	0.537	0.487	1.05	0.973	0.993	1	1.01	0.986	0.893	0.979	0.811
NCI-H358	0.896	1.16	0.924	0.121	0.121	0.137	0.132	0.126	0.114	0.825	0.794	0.717	0.502	0.762	0.51	0.113	0.112	0.106
NCI-H838	0.96	1.06	0.936	0.528	0.554	0.521	0.22	0.223	0.23	1.05	1.08	1.02	0.847	0.839	0.841	0.248	0.301	0.229
HCC-827	1	1.06	1.02	0.559	0.522	0.514	0.491	0.544	0.46	1.06	1.11	1.1	0.957	0.957	0.884	0.442	0.419	0.384
NCI-H2087	1.05	1.19	0.964	0.188	0.235	0.195	0.219	0.285	0.269	1.08	1.26	0.993	0.602	1.03	0.655	0.295	0.254	0.267
EMC-BAC-2	1.07	1.03	0.965	1.01	0.993	0.875	0.542	0.562	0.531	1.02	1.05	1.03	0.837	0.791	0.733	0.296	0.266	0.302
201T	1	0.992	0.982	0.746	0.736	0.758	0.369	0.371	0.348	0.968	1.22	1.1	0.999	1.02	1.04	0.971	0.965	0.942
RERF-LC-KJ	1.04	0.989	0.96	0.871	0.87	0.877	1.07	1.1	1.05	0.796	0.932	0.814	0.833	0.778	0.745	0.46	0.531	0.578
NCI-H2228	0.993	1.3	1.03	0.511	0.719	0.587	0.803	0.85	0.818	1.08	0.889	0.81	0.496	0.508	0.453	0.206	0.233	0.295
NCI-H2405	1.08	1.04	0.966	0.599	0.675	0.596	0.56	0.532	0.513	1.06	1.04	1.07	0.855	0.86	0.85	0.785	0.809	0.778
SK-LU-1	1.07	1.11	1.01	0.457	0.745	0.48	0.359	0.449	0.366	0.805	0.816	0.811	1.03	0.958	0.864	0.317	0.331	0.323
CAL-12T	1.15	0.99	0.9	0.338	0.463	0.357	0.485	0.446	0.419	1.14	1.21	1.14	0.835	0.692	0.698	0.333	0.348	0.355
NCI-H1975	0.987	1.03	0.938	0.298	0.525	0.355	0.6	0.783	0.551	0.892	1.01	1.02	1	1.02	0.984	0.681	0.901	0.722
NCI-H1755	1.03	1.06	0.987	0.781	0.801	0.831	0.47	0.461	0.429	0.934	0.912	0.902	0.888	0.957	0.841	0.585	0.625	0.553
A-427	1.05	1.07	0.989	0.755	0.806	0.836	0.54	0.548	0.507	1.02	1.34	1.02	0.964	0.983	0.83	0.227	0.204	0.197
HOP-62	1.06	1.03	0.974	0.412	0.439	0.355	0.454	0.453	0.465	1.14	1.12	1.02	0.924	1.04	0.968	0.36	0.401	0.35
